Assay results reported in EP4603105A1, “PHARMACEUTICAL COMPOSITION CONTAINING CYCLIC COMPOUND HAVING SELECTIVE KRAS INHIBITORY EFFECT AGAINST HRAS AND NRAS” (CHUGAI SEIYAKU KABUSHIKI KAISHA, priority 2022, dated 2024).
*1 amine or outer side, *2 acyl side, *3 side chain or, on linkers, in order; H or OH if unused. Where a SMILES comes first, the peptide text is derived from it. Bridges are numbered along the chain shown (N, C = ends). [ ]: non-standard residue; d: D form. The star is where a group is joined. hPhe(3,5-F2-4-CF3) = N[C@@H](CCc1cc(F)c(C(F)(F)F)c(F)c1)C(=O)O; hPhe(3-Cl-4-CF3) = N[C@@H](CCc1ccc(C(F)(F)F)c(Cl)c1)C(=O)O; X33 = O=C([C@H](Cc1ccc(C(F)(F)F)cc1)N(CC1CC1)[*:1])[*:2]; NPrPhe(4-CF3) = CCCN[C@@H](Cc1ccc(C(F)(F)F)cc1)C(=O)O; NMeGly(cPent) = CN[C@H](C(=O)O)C1CCCC1; NMeD = CN[C@@H](CC(=O)O)C(=O)O; Ac4c(3-oxa) = NC1(C(=O)O)COC1; NMeL = CN[C@@H](CC(C)C)C(=O)O; Morpholide = C1CN(*)CCO1; NMeA = CN[C@@H](C)C(=O)O; Ac5c = NC1(C(=O)O)CCCC1; Aze = O=C(O)[C@@H]1CCN1; Aib = CC(C)(N)C(=O)O; Sar = CNCC(=O)O

What was measured:
[1] = target: HRAS wild-type protein (Homo sapiens, UniProt P01112); assay: Binding to HRAS by surface plasmon resonance (SPR), KD and KD ratio to KRAS
Chain of HRAS wild-type protein (P01112 whole entry): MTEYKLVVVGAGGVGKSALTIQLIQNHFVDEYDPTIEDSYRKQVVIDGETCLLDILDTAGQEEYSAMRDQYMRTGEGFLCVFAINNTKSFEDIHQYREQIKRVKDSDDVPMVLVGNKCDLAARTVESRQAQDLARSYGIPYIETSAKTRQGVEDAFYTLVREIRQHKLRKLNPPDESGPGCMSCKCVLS
Method in brief: (§1)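 GDP-loaded biotinylated Avi-tag RAS proteins (E. coli-expressed) captured on a Biotin CAPture chip at ~100–300 RU; single-cycle kinetics at 30°C, 100 µL/min, 75 s injections of rising compound concentrations. HBS pH 7.4 running buffer with 1 mM DTT, 10 mM MgCl2, 10 µM GDP, 4% DMSO. KD from 1:1 binding fit.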

[2] = system: human lung cancer strain NCI-H441; assay type: cell-based
Method in brief: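 Readout: […] after the ATP-based reagent. Compound: serial dilutions in dimethyl sulfoxide.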

[3] = target: GDP-bound NRAS wild-type protein (Homo sapiens, UniProt P01111); assay: Binding to NRAS by surface plasmon resonance (SPR), KD and KD ratio to KRAS
Chain of GDP-bound NRAS wild-type protein (P01111 whole entry): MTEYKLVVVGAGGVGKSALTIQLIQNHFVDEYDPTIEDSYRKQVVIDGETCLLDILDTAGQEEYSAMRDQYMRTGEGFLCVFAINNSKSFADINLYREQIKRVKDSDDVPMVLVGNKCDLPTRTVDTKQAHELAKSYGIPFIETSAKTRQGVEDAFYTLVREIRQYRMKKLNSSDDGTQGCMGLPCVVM
Method in brief: as §1

[4] = ratio of KD for HRAS wild-type protein to KD for KRAS
[5] = ratio of KD for GDP-bound NRAS wild-type protein to KD for KRAS
[6] = ratio of the KD value with respect to HRAS wild-type protein to the KD value with respect to KRAS
[7] = ratio of the KD value with respect to GDP-bound NRAS wild-type protein to the KD value with respect to KRAS

Structure (SMILES)	HRAS /KRAS [1, 4]	IC50 [2] [µM]	NRAS /KRAS [3, 5]	HRAS /KRAS [1, 6]	NRAS /KRAS [3, 7]	HRAS /KRAS ([1]; ratio of KD value for HRAS wild-type protein to KD value for KRAS (SPR))	NRAS /KRAS ([3]; ratio of KD value for GDP-bound NRAS wild-type protein to KD value for KRAS (SPR))
CCCN1C(=O)[C@@H]2CCN2C(=O)[C@H](C)N(C)C(=O)[C@H]([C@@H](C)CC)NC(=O)[C@H](CC(C)C)N(C)C(=O)C[C@@H](C(=O)N2CCOCC2)N(C)C(=O)[C@H](C2CCCC2)N(C)C(=O)C(C)(C)NC(=O)[C@@H]2CCCN2C(=O)[C@H](CCc2ccc(C(F)(F)F)c(Cl)c2)NC(=O)CN(C)C(=O)[C@@H]1Cc1ccc(C(F)(F)F)cc1 [PP0225] ([NMeL]I[NMeA][Aze][NPrPhe(4-CF3)][Sar][hPhe(3-Cl-4-CF3)]P[Aib][NMeGly(cPent)][NMeD]-Morpholide; lactam N-11)	C (A compound having a KD ratio of 0.1 or more and less than 3 is denoted as C)	0.0024	C (A compound having a KD ratio of 0.1 or more and less than 3 is denoted as C)				
CC[C@H](C)[C@@H]1NC(=O)[C@H](CC(C)C)N(C)C(=O)C[C@@H](C(=O)N2CCOCC2)N(C)C(=O)[C@H](C2CCCC2)N(C)C(=O)C2(CCC2)NC(=O)[C@@H]2C[C@@H](O)CN2C(=O)[C@H](CCc2cc(F)c(C(F)(F)F)c(F)c2)NC(=O)CN(C)C(=O)[C@H](Cc2ccc(C(F)(F)F)cc2)N2CCCC[C@@H](C2=O)N(C)C(=O)CN(C)C1=O [PP0868]	B (a compound having 3 or more and less than 10 is denoted as B)	0.0708	C (A compound having a KD ratio of 0.1 or more and less than 3 is denoted as C)				
CCC[C@H]1C(=O)N[C@@H]([C@@H](C)CC)C(=O)N(C)CC(=O)N(C)[C@H]2C/C=C\CCN(C2=O)[C@@H](Cc2ccc(C)cc2)C(=O)N(C)CC(=O)N[C@@H](CCc2ccc(Cl)c(C(F)(F)F)c2)C(=O)N2C[C@H](OCC)C[C@H]2C(=O)NC2(CC(C)(C)C2)C(=O)N(C)[C@@H](C2CCCC2)C(=O)N(C)[C@H](C(=O)N(C)C)CC(=O)N1C [PP2786]	A (a compound having 10 or more and less than 20 is denoted as A)	0.0098	A (a compound having 10 or more and less than 20 is denoted as A)				
CC[C@H](C)[C@@H]1NC(=O)[C@H](CC(C)C)N(C)C(=O)C[C@@H](C(=O)N2CCOCC2)N(C)C(=O)[C@H](C2CCCC2)N(C)C(=O)C2(CCCC2)NC(=O)[C@@H]2CCCN2C(=O)[C@H](CCc2ccc(C(F)(F)F)c(Cl)c2)NC(=O)CN(C)C(=O)[C@H](Cc2ccc(C(F)(F)F)cc2)N(CC2CC2)C(=O)[C@@H]2CCN2C(=O)[C@H](C)N(C)C1=O [PP0108] ([NMeL]I[NMeA][Aze][X33][Sar][hPhe(3-Cl-4-CF3)]P[Ac5c][NMeGly(cPent)][NMeD]-Morpholide; lactam N-11)	C (A compound having a KD ratio of 0.1 or more and less than 3 is denoted as C)	0.009	C (A compound having a KD ratio of 0.1 or more and less than 3 is denoted as C)				
CC[C@H](C)[C@@H]1NC(=O)[C@H](C)N(C)C(=O)C[C@@H](C(=O)N(C)C)N(C)C(=O)[C@H](C2CCCC2)N(C)C(=O)C2(CCC2)NC(=O)[C@@H]2CCCN2C(=O)[C@H](CCc2cc(F)c(C(F)(F)F)c(F)c2)NC(=O)CN(C)C(=O)[C@H](Cc2ccc(C(F)(F)F)cc2)N2CCCCC[C@@H](C2=O)N(C)C(=O)CN(C)C1=O [PP0470]		0.0519		B (a compound having 3 or more and less than 10 is denoted as B)	B (a compound having 3 or more and less than 10 is denoted as B)		
CCO[C@@H]1C[C@H]2C(=O)NC3(CCC3)C(=O)N(C)[C@@H](C3CCCC3)C(=O)N(C)[C@H](C(=O)N(C)C)CC(=O)N(C)[C@@H](COC)C(=O)N[C@@H]([C@@H](C)CC)C(=O)N(C)CC(=O)N(C)[C@H]3CCCCCN(C3=O)[C@@H](Cc3ccc(C(F)(F)F)cc3)C(=O)N(C)CC(=O)N[C@@H](CCc3cc(F)c(C(F)(F)F)c(F)c3)C(=O)N2C1 [PP0674]		0.0139		B (a compound having 3 or more and less than 10 is denoted as B)	B (a compound having 3 or more and less than 10 is denoted as B)		
CCC[C@H]1C(=O)N[C@@H]([C@@H](C)CC)C(=O)N2CCC[C@H]2C(=O)N(C)[C@H]2C/C=C\CCN(C2=O)[C@@H](CC2CCCCC2)C(=O)N(C)CC(=O)N[C@@H](CCc2ccc(C(F)(F)F)c(OC)c2)C(=O)N2C[C@H](OCC)C[C@H]2C(=O)N(C)C2(CCC2)C(=O)N(C)[C@@H](C(CC)CC)C(=O)N(C)[C@H](C(=O)N(C)C)CC(=O)N1C [PP2341]		0.133		A (a compound having 10 or more and less than 20 is denoted as A)	A (a compound having 10 or more and less than 20 is denoted as A)		
CCO[C@@H]1C[C@H]2C(=O)NC3(CCC3)C(=O)N(C)[C@@H](C3CCCC3)C(=O)N(CC)[C@H](C(=O)N3CCOCC3)CC(=O)N(C)[C@@H](CC)C(=O)N[C@@H]([C@@H](C)CC)C(=O)N(C)CC(=O)N(C)[C@H]3CCCCCN(C3=O)[C@@H](Cc3ccc(C(F)(F)F)cc3)C(=O)N(C)CC(=O)N[C@@H](CCc3cc(F)c(C(F)(F)F)c(F)c3)C(=O)N2C1 [PP0944]	A (a compound having 10 or more and less than 20 is denoted as A)	0.344	A (a compound having 10 or more and less than 20 is denoted as A)				
CCO[C@@H]1C[C@H]2C(=O)NC3(CC(C)(C)C3)C(=O)N(C)[C@@H](C3CCCC3)C(=O)N(C)[C@H](C(=O)N(C)CC)CC(=O)N(C)[C@H]3CCC/C=C/c4ccc(cc4)C[C@@H](C(=O)N(C)CC(=O)N[C@@H](CCc4ccc(Cl)c(Cl)c4)C(=O)N2C1)N1CC/C=C\C[C@@H](C1=O)N(C)C(=O)CN(C)C(=O)[C@H]([C@@H](C)CC)NC3=O [PP2577]	A (a compound having 10 or more and less than 20 is denoted as A)	0.0041	A (a compound having 10 or more and less than 20 is denoted as A)				
CCCN(C)C(=O)[C@@H]1CC(=O)N(C)[C@@H](CC)C(=O)N[C@@H]([C@@H](C)CC)C(=O)N(C)CC(=O)N(C)[C@H]2C/C=C\CCN(C2=O)[C@@H](Cc2ccc(C(F)(F)F)cc2)C(=O)N(C)CC(=O)N[C@@H](CCc2cc(F)c(C(F)(F)F)c(F)c2)C(=O)N2C[C@H](OCC)C[C@H]2C(=O)NC2(CC(F)(F)C2)C(=O)N(C)[C@@H](C2CCCC2)C(=O)N1C [PP1732]		0.0064				A (a compound having 10 or more and less than 20 is denoted as A)	AA (a compound having 20 or more is denoted as AA)
CCCN1C(=O)[C@@H]2CCN2C(=O)CN(C)C(=O)[C@H]([C@@H](C)CC)NC(=O)[C@H](CC(C)C)N(C)C(=O)C[C@@H](C(=O)N2CCOCC2)N(C)C(=O)[C@H](C2CCCC2)N(C)C(=O)C2(COC2)NC(=O)[C@@H]2CCCN2C(=O)[C@H](CCc2cc(F)c(C(F)(F)F)c(F)c2)NC(=O)CN(C)C(=O)[C@@H]1Cc1ccc(C(F)(F)F)cc1 [PP0801] ([NMeL]I[Sar][Aze][NPrPhe(4-CF3)][Sar][hPhe(3,5-F2-4-CF3)]P[Ac4c(3-oxa)][NMeGly(cPent)][NMeD]-Morpholide; lactam N-11)	B (a compound having 3 or more and less than 10 is denoted as B)	0.0287	C (A compound having a KD ratio of 0.1 or more and less than 3 is denoted as C)				
